In patent US11459397B2, “Self-crosslinking antibodies” (Meditope Biosciences, Inc., priority 2016, dated 2022):

Legend:
[1] = test system: HER2 expressing SK-OV-3-Luc ovarian xenograft; experiment: efficacy in SK-OV-3-Luc ovarian xenograft subcutaneous model; type: in vivo, mice; details: 20 mg/kg ip BIW, day 52 pi
Description: This study was performed to evaluate the efficacy of ADC constructs against HER2 expressing SK-OV-3-Luc ovarian xenograft subcutaneous model using both bioluminescent imaging and traditional tumor caliper measurement. Sixty-five female athymic nudes, 4 weeks old of age were obtained from Charles River. SK-OV-3-Luc cells were expanded using standard tissue culture technique. On the day of implantation, 2.5×10^6 cells in incomplete media with 30% matrigel were implanted to the right lower flank of each mouse. Animals were stratified into 7 groups of 8 mice for treatment based on the total flux (Perkin Elmer IVIS Lumina XRMS II) at day 10 pi. Animals were weighed twice weekly in conjunction with tumor measurements. Bioluminescent Imaging were performed once a week. Tumor mass were calculated using the following formula: Mass (mg)=Tumor volume (mm^3)=d^2×D/2, where d and D are the shortest and longest diameter in mm, respectively.

[2] = target: cetuximab Fab fragment; experiment: meditope binding to cetuximab Fab; details: meditope-binding site within the central cavity of the cetuximab Fab fragment; read-out: binding constant
Chain of cetuximab Fab fragment (as listed by the source, other chains not shown): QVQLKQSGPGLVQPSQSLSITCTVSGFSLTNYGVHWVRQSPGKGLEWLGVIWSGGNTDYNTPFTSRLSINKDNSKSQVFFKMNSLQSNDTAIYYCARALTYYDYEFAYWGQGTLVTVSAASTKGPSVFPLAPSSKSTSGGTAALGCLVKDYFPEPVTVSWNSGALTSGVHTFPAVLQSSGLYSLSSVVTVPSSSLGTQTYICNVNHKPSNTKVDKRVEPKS
Description: In some examples, the meditope-binding site is a structural feature of the monoclonal antibody cetuximab. Thus, in some cases, the meditope-binding site contains residues corresponding to those within the meditope binding site of cetuximab.

[3] = modulation of self-crosslinking by free meditope, silver-stained native gel; type: physicochemical; details: 1 μM free meditope, 100 nM SnAP-body variants 1, 2, 3
[4] = test system: CLL; details: Phase I, cited from earlier work
[5] = 46 heavily pretreated CLL patients, single agent

**Q.** With `CC(=O)O[C@H]1C(=O)[C@@]2(C)[C@H]([C@H](OC(=O)c3ccccc3)[C@]3(O)C[C@H](OC(=O)[C@H](O)[C@@H](NC(=O)c4ccccc4)c4ccccc4)C(C)=C1C3(C)C)[C@]1(OC(C)=O)CO[C@@H]1C[C@@H]2O` [Paclitaxel] as the molecule, how does the TGI [1] read?
**A.** 2.80%

**Q.** Which Kd [2] does the source give for C-QFDLSTRRLK-C [cQFD meditope] here?
**A.** ~0.7 µM

**Q.** And the “effect of free meditope on antibody self-crosslinking” value [3]?
**A.** can interfere with the self-crosslinking ability of self-crosslinking antibodies

**Q.** With “lumiliximab: primatized anti-CD23 mAb that contains cynomolgus macaque variable regions and human constant regions (IgG1-κ)” as the molecule, how does the “objective Complete Responses (CRs) or Partial Responses (PRs)” value [4, 5] read?
**A.** no objective Complete Responses (CRs) or Partial Responses (PRs) were observed

**Q.** What about the “patients with decreased peripheral blood lymphocyte counts” value [4, 5] of the same molecule?
**A.** 91 % of patients

**Q.** What about the “patients with reduced enlarged lymph node size” value [4, 5] of the same molecule?
**A.** 52 % of patients

**Q.** And the “MTD (maximum tolerated dose)” value ([4]; CLL patients)?
**A.** not reached

**Q.** What about the “adverse events (AEs)” value ([4]; CLL patients) of the same molecule?
**A.** majority of adverse events (AEs) are limited to grade 1/2

**Q.** And the immunosuppression ([4]; CLL patients)?
**A.** not immunosuppressive
